Experimental findings from patent US20070203066A1, “Compositions and methods for inhibiting cellular proliferation” (priority 2005, published 2007) are described below.

Non-standard residues stand in square brackets, D forms with d. Primed or numbered codes have the meaning given here. No end group written: not given here. Ida = iminodiacetic acid linker, its two carboxyls bind the Lys side-chain amines of two peptides, giving a homodimer; Ida(3) = iminodiacetic acid linker, Lys side-chain amines bound to its two carboxyl groups; Ida(4) = iminodiacetic acid linker (dimerization linker bound to lysine side chain); Ida″ = iminodiacetic acid linker bound to the Lys side-chain amine, forming a dimer; Ahx = NCCCCCC(=O)O

The test system of one experiment is HUVECs. It is filed as cell-based. The note with it: 48 h. In outline: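 Proliferation read-out: BrdU incorporation after 48-hour culture (37 ° C, 5% CO2) with graded peptide doses. Cells were in EBM with 2% FCS at 5,000 per well, driven by VEGF (5 ng/ml) or bFGF (10 ng/ml), added after ≥12-hour attachment.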
On to `CC[C@H](C)[C@H](NC(=O)[C@H](C)NC(=O)[C@@H](NC(=O)[C@H](C)NC(=O)[C@H](CCC(N)=O)NC(=O)[C@H](CCCNC(=N)N)NC(=O)[C@H](CCCNC(=N)N)NC(=O)[C@H](CCCNC(=N)N)NC(=O)[C@H](CCCNC(=N)N)NC(=O)[C@H](C)NC(C)=O)C(C)C)C(=O)N[C@@H](Cc1ccc(O)cc1)C(=O)N[C@@H](Cc1ccccc1)C(=O)N[C@@H](CCCCNC(=O)CN(CC(=O)NCCCC[C@H](NC(=O)[C@H](Cc1ccccc1)NC(=O)[C@H](Cc1ccc(O)cc1)NC(=O)[C@@H](NC(=O)[C@H](C)NC(=O)[C@@H](NC(=O)[C@H](C)NC(=O)[C@H](CCC(N)=O)NC(=O)[C@H](CCCNC(=N)N)NC(=O)[C@H](CCCNC(=N)N)NC(=O)[C@H](CCCNC(=N)N)NC(=O)[C@H](CCCNC(=N)N)NC(=O)[C@H](C)NC(C)=O)C(C)C)[C@@H](C)CC)C(N)=O)C(=O)CCNC(=O)OC(C)(C)C)C(N)=O` [Peptide 315], for which the IC50 (usually the concentration that inhibits the measured activity by half) was under 10 µM.

Staying with this experiment, now noted: HUVEC proliferation, bFGF at 10 ng/ml or VEGF at 5 ng/ml, 48 hours, BrdU incorporation; read-out: IC50 on HUVECs.
“498 (Ac-PRSRRQAVAIYFK(Ida″); not fully specified (C-terminus); also: homodimer via Ida linker on Lys13 side chain) [compound 498]”: the IC50 was under 10 µM.
In the case of KTKRKAKKQRVKIIFVQNM [compound 118], the IC50 is under 10 µM.
Same read-out and setting: with TKRKRKKQRVKIIF [compound 80] the figure was over 30 µM; with “357 (Ac-RRRRRQAVRIQIQFK; not fully specified) [compound 357]”, 10 to 30 µM; with “257 (Ac-ARRRRQR[dV]AIIFK; not fully specified (C-terminus); also: homodimer: side chain of Lys13 bound to an Ida linker) [compound 257]”, under 10 µM.
On the same count and under the same terms, with KTKRARKKQRVKIIFVQNM [compound 119] the figure was under 10 µM.
On to “363 (Ac-ARRRRQRVAWYFK-NH2; not fully specified (residue 13); also: homodimer of residues 1-13 via Ida linker on K13 side chain) [compound 363]”, for which the IC50 is under 10 µM.
On to “427 (Ac-ARRRRQAVAIK(Ida(4))F; also: homodimer of residues 1-12 via Ida linker on Lys11 side chain) [compound 427]”, for which the IC50 was under 10 µM.
Same read-out and setting: in the case of “458 (Ac-KARRRRQAVAIYF; not fully specified (residue 1); also: homodimer via Ida linker on Lys side chains, linker at 1 via Ida, other end not in the chain) [compound 458]” it was over 30 µM; in that of KTKRKRKKQRVAAAYEEIFVQNM [compound 50], over 30 µM.
Still for that read-out and setting: with “324 (Ac-RRHRRQHVRIYFK(Ida)-NH2; also: homodimer via Ida linker on Lys13 side chain) [compound 324]” the figure was under 10 µM; with “283 (Ac-RRRRAQAVHIYFK-NH2; not fully specified (residue 13); also: homodimer: Lys13 side chain bound to Ida linker) [compound 283]”, under 10 µM; with “282 (Ac-RRRRAQHVAIYFK-NH2; not fully specified (residue 13); also: homodimer: Lys13 side chain bound to Ida linker) [compound 282]”, under 10 µM.
Still for that read-out and setting: with KTKRKRKKQRVKIIFAQNM [compound 108] the figure was 10 to 30 µM; with YGRKKRRQRRR [compound 445], over 30 µM.
As for “493 (Ac-ARRRNQPVAIKF; not fully specified (residue 11); also: homodimer: Lys11 side chain bound to Ida linker (Boc on Ida N)) [compound 493]”, the IC50 was over 30 µM.
Same read-out and setting: in the case of RKRKKQRVKIIF [compound 82] it was over 30 µM; in that of RKKQRVKIIF [compound 84], over 30 µM.
Same read-out and setting: with “223 (Ac-ARRRRQRVAIGFK; also: homodimer via Ida linker on side chain of Lys13) [compound 223]” the figure was over 30 µM; with “371 (Ac-ARRRRQRVAYYFK-NH2; not fully specified (residue 13); also: homodimer via Ida linker on Lys13 side chain, Boc on Ida amine) [compound 371]”, under 10 µM.
Still for that read-out and setting: with “195 (Ac-ARRRRQAVRIIF; also: dimer: C-terminal Phe bound to an amino group of a Lys linker, 2 chains per Lys) [compound 195]” the figure was under 10 µM.
As for KTKRKRKKQRVKEIFVQNM [compound 32], the IC50 was over 30 µM.
Still for that read-out and setting: in the case of “318 (XRRRRQAVAIYFK; Xaa = Acylated Histidine; The side chain of Lysine at position 13 is covalently bound to an Ida linker forming a homodimer of residues 1 through 13.) [compound 318]” it was under 10 µM; in that of KTKRKRKKQRVKIAYE [compound 35], over 30 µM; in that of “379 (Ac-ARRRRQRVAISFK-NH2; not fully specified (residue 13); also: homodimer via Ida linker on Lys13 side chain, Ida amine Boc) [compound 379]”, under 10 µM.
The same measure, in the same setting: with KTKRKRKKQRVKIAAEEIFVQNM [compound 49] the figure was over 30 µM; with “387 (Ac-ARRRRQAVEIYFK-NH2; not fully specified (residue 13); also: homodimer via Ida linker on Lys13 side chain, Ida amine Boc) [compound 387]”, under 10 µM.
Take RKKQRVKIAYEEIF [compound 69]: the IC50 is over 30 µM.
TKRKRKKQRVKIAYEEIFV [compound 60]: the IC50 was in the range of 10 to 30 µM.
KTKRKRKKQAYEEIFVQNM [compound 29]: the IC50 was over 30 µM.
“507 (Ac-RGDSPGGARRRRQRVAIYFK; also: homodimer via Ida linker on Lys20 side chain) [compound 507]”: the IC50 was under 10 µM.
The same measure, in the same setting: in the case of “328 (XRHRRQHVRIYFK; not fully specified; Xaa = Acylated Histidine; The side chain of Lysine at position 13 is covalently bound to an Ida linker forming a homodimer of residues 1 through 13.) [compound 328]” it was under 10 µM.
Same read-out and setting: in the case of RKRKKQRVKIAYEEIFVKNM [compound 4] it was 10 to 30 µM.
For “355 (Ac-ARRRR[dQ]RVAIIFK; not fully specified) [compound 355]”, the IC50 is over 30 µM.
Still for that read-out and setting: in the case of TKRKRKKQRVKIAYEEIF [compound 65] it was over 30 µM.
“361 (Ac-ARRRRQRVAIYFK; not fully specified) [compound 361]”: the IC50 is over 30 µM.
Still for that read-out and setting: with KTKRKRKKQRVKAIFVQNM [compound 111] the figure was 10 to 30 µM; with “459 (Ac-KRRRRQAVAIYF; not fully specified (residue 1); also: homodimer via Ida linker on Lys side chains, linker at 1 via Ida, other end not in the chain) [compound 459]”, over 30 µM; with “221 (Ac-RRRRAQAVAIIF; also: dimer: Phe C-termini joined via Lys linker) [compound 221]”, under 10 µM.
On the same count and under the same terms, in the case of “480 (Ac-PRRRWQAVAIYFK(Ida(3)); not fully specified (C-terminus); also: homodimer via Ida linker on Lys13 side chain) [compound 480]” it was 10 to 30 µM; in that of “246 (Ac-RRRRHQHVRIIF; also: homodimer: C-termini of two chains bound to the two amines of a Lys linker) [compound 246]”, under 10 µM.
As for “59 ([Ahx]RTRRRRRRQRVRIAYEEIFVRNM; also: homodimer of residues 1-24 via Ida linker on Ahx amino group) [compound 59]”, the IC50 is over 30 µM.
With “229 (XHRRRQRVRIIF; Xaa = Acylated Histidine; Dimeric peptide wherein the C terminus of Phe in position 12 of one peptide chain is covalently bound to one of the amino groups of a Lysine linker and Phe of the remaining peptide chain is covalently bound to the other amino group of the Lysine linker.) [compound 229]”, the IC50 is under 10 µM.
The same measure, in the same setting: in the case of “489 (Ac-PRRRPQAVAIK(Ida″)F; also: homodimer via Ida linker on Lys11 side chain) [compound 489]” it was under 10 µM; in that of “245 (Ac-RRRHRQRVHIIF; also: homodimer: C-termini of two chains bound to the two amines of a Lys linker) [compound 245]”, 10 to 30 µM.
The same measure, in the same setting: in the case of “453 (Ac-QRRRRQAVAIVFK-NH2; not fully specified (residue 13); also: homodimer via Ida linker at K13) [compound 453]” it was under 10 µM; in that of “351 (Ac-ARRRRQRVAIYGK-NH2; not fully specified (residue 13); also: homodimer of residues 1-13 via Ida linker on K13 side chain) [compound 351]”, over 30 µM.
Same read-out and setting: in the case of “235 (Ac-RHHRRQRVRIIF; also: dimer via C-terminal Phe to Lys linker) [compound 235]” it was under 10 µM; in that of “268 (Ac-ARRRRQRVAIPFK-NH2; not fully specified (residue 13); also: homodimer: side chain of Lys13 bound to an Ida linker) [compound 268]”, over 30 µM.
As to KTKRKRKKQRVKIAYEEIF [compound 16], the 50% inhibitory concentration (IC50) was in the range of 10 to 30 µM.
